In US10369165B2, “Composition containing active components of Dracocephalum moldavica L. against myocardial ischemia-reperfusion injury” (Nanjing Ruiying Runze Biopharmaceutical Technology Co., Inc., priority 2014, dated 2019):

How the values were obtained:
[1] = system: myocardial ischemia-reperfusion injury (MIRI); settings: previous studies; cited from earlier work
[2] = system: rat primary cardiac myocytes; assay: ATP, ADP, AMP content (HPLC) of rat primary cardiac myocytes injured by nitrogen hypoxia/reoxygenation; format: cell-based; settings: 30 μM, cell lysate supernatant
Experimental: Experiment method: Wistar ventricular myocytes of neonatal rat aged 2 d are isolated under asepsis condition, then the myocytes are digested with mixture of digestive enzymes (0.06% trypsin and 0.1% type II collagenase mixed in equal amount) for multiple times in a short time. Cardiac myocytes are purified using differential adhesion method. […] The cells are cultured for 24 hours, then the supernatant is discarded, and the cells are washed with PBS three times. All of the cells are classified into contrast group, hypoxia/reoxygenation injury group, hypoxia/reoxygenation model+compatible composition group. After pre-treatment for 24 h, all of the hypoxia/reoxygenation injury groups are placed in glucose-free Earle's solution which has been previously saturated with mixture of 95% N2+5% CO2 for 1 hour. The cells are cultured in hypoxic condition for 6 h at 37° C. in constant-temperature incubator introduced with the mixture of 95% N2+5% CO2. Then the hypoxia treated cells are subjected to reoxygenation in normal condition for 5 h with the high glucose medium DMEM (containing 10% FBS) which has been previously saturated with mixture of 95% air+5% CO2. At the same time, the cells are incubated with compatible compositions. After treating the experimental groups of cells, the culture solution is discarded. The cells are washed once with pre-cooled PBS. 500 μl pre-cooled 50% perchlorate solution is added in each well. Pyrolysis of cells take place on ice for 5 min. The cells are scrapped, 600 μl of 2.5 mol/L Na2CO3 solution is added, and pH is adjusted to 6.5. Pyrolysis mixture is collected in centrifuge tube and centrifuged in 4° C. Content of supernatant is determined by HPLC. […] The content is determined with HPLC method. The equipment is LC-2010C quaternionic pump high performance liquid chromatogram, analytical column is Diamonsil C18 column (250 mm×4.6 mm, 5 μm), detection wavelength: 260 nm, mobile phase is 0.05M phosphate buffer (pH 6.5), detector is UV-vis detector. Flow-rate of column is 0.8 ml/min, sample size is 20 μl, and analytical time is 12 min, the data is processed using LCsolution chromatography workstation (Japan, […]).

[3] = system: rat primary cardiac myocytes; assay: pH of culture supernatant of rat primary cardiac myocytes injured by nitrogen hypoxia/reoxygenation; format: cell-based; settings: 30 μM; culture medium supernatant; hypoxia 6 h, reoxygenation 5 h
Experimental: Experiment method: Wistar ventricular myocytes of neonatal rat aged 2 d are isolated under asepsis condition, then the myocytes are digested with mixture of digestive enzymes (0.06% trypsin and 0.1% type II collagenase mixed in equal amount) for multiple times in a short time. Cardiac myocytes are purified using differential adhesion method. […] The cells are cultured for 24 hours, then the supernatant is discarded, and the cells are washed with PBS three times. All of the cells are classified into contrast group, hypoxia/reoxygenation injury group, hypoxia/reoxygenation model+compatible composition group. After pre-treatment for 24 h, all of the hypoxia/reoxygenation injury groups are placed in glucose-free Earle's solution which has been previously saturated with mixture of 95% N2+5% CO2 for 1 hour. The cells are cultured in hypoxic condition for 6 h at 37° C. in constant-temperature incubator introduced with the mixture of 95% N2+5% CO^2. Then the hypoxia treated cells are subjected to reoxygenation in normal condition for 5 h with the high glucose medium DMEM (containing 10% FBS) which has been previously saturated with mixture of 95% air+5% CO2. At the same time, the cells are incubated with compatible compositions. After treating the experimental groups of cells, the supernatant is collected; the pH of supernatant of culture medium is measured directly with pH meter.

[4] = system: rat H9c2 cardiac myocytes; assay: MTT cell activity of H9c2 cardiac myocytes after hypoxia/reoxygenation injury; format: cell-based; settings: total 30 μM, 12 h preincubation, hypoxia 6 h, reoxygenation 5 h
Experimental: Rat cardiac myocytes H9c2 in logarithmic growth phase are taken. After digestion, the cells are resuspended with DMEM medium (containing 10% FBS), then inoculated into 96-well plate and normally cultured in incubator of 37° C. and 5% CO2. After entering logarithmic growth phase, the cells are divided into following groups for experiment: (1) normal culture group (Control group): during the experiment, cells are normally cultured in incubator of 37° C. and 5% CO2; (2) […] Model group (Model group): normal culture fluid for the experimental cells in logarithmic growth phase is replaced with glucose-free Earle's solution which has been previously saturated with mixture of 95% N2+5% CO2 for 1 hour. Then the cells are cultured in hypoxic condition for 6 h at 37° C. in constant-temperature incubator introduced with the mixture of 95% N2+5% CO2. Then the hypoxia treated cells are subjected to reoxygenation in normal condition for 5 h with the high glucose medium DMEM (containing 10% FBS) which has been previously saturated with mixture of 95% air+5% CO2. (3) pre-treated compatible group of luteilon, kaempferol and luteolin-7-O-glucoside: H9c2 cells are preincubated for 12 h with luteilon, kaempferol and luteolin-7-O-glucoside combined in different ratios. Then, the normal culture solution is replaced with glucose-free Earle's solution which has been previously saturated with mixture of 95% N2+5% CO2 for 1 hour. After anoxic treatment for 6 h with N2 anoxic tank, the cells are subjected to reoxygenation for 5 h in normal culture condition with normal culture solution; meanwhile the cells are incubated with the administration of each compatible drug. After treatment, 20 μg/ml MTT is added, and each experimental group is cultured for 4 h, then MTT is solved in 150 μl DMSO. OD of each well is read by ELISA meter at wavelength of 490 nm, and activity of cells is determined.

[5] = system: rat primary cardiac myocytes; assay: MTT cell activity of rat primary cardiac myocytes injured by hypoxia/reoxygenation; format: cell-based; settings: 30 μM, 24 h pre-treatment, hypoxia 6 h, reoxygenation 5 h
Experimental: Wistar ventricular myocytes of neonatal rat aged 2 d are isolated under asepsis condition, then the myocytes are digested with mixture of digestive enzymes (0.06% trypsin and 0.1% type II collagenase mixed in equal amount) for multiple times in a short time. Cardiac myocytes are purified using differential adhesion method. […] The cells are cultured for 24 hours, then the supernatant is discarded, and the cells are washed with PBS three times. […] After pre-treatment for 24 h, all of the hypoxia/reoxygenation injury groups are placed in glucose-free Earle's solution which has been previously saturated with mixture of 95% N2+5% CO2 for 1 hour. The cells are cultured in hypoxic condition for 6 h at 37° C. in constant-temperature incubator introduced with the mixture of 95% N2+5% CO2. Then the hypoxia treated cells are subjected to reoxygenation in normal condition for 5 h with the DMEM high glucose medium (containing 10% FBS) which has been previously saturated with mixture of 95% air+5% CO2. At the same time, the cells are incubated with the administration of compatible compositions. After treating the experimental groups of cells, 20 μg/ml MTT is added, and each experimental group is cultured for 4 h, then MTT is solved in 150 μl DMSO. OD of each well is read by ELISA meter at wavelength of 490 nm, and activity of cells is determined.

[6] = system: rat primary cardiac myocytes; assay: LDH leak of rat primary cardiac myocytes injured by nitrogen hypoxia/reoxygenation; format: cell-based; settings: 30 μM; culture medium supernatant; hypoxia 6 h, reoxygenation 5 h
Experimental: Experiment Method: Wistar ventricular myocytes of neonatal rat aged 2 d are isolated under asepsis condition, then the myocytes are digested with mixture of digestive enzymes (0.06% trypsin and 0.1% type II collagenase mixed in equal amount) for multiple times in a short time. Cardiac myocytes are purified using differential adhesion method. […] The cells are cultured for 24 hours, then the supernatant is discarded, and the cells are washed with PBS three times. All of the cells are classified into contrast group, hypoxia/reoxygenation injury group, hypoxia/reoxygenation model+compatible composition group. After pre-treatment for 24 h, all of the hypoxia/reoxygenation injury groups are placed in glucose-free Earle's solution which has been previously saturated with mixture of 95% N2+5% CO2 for 1 hour. The cells are cultured in hypoxic condition for 6 h at 37° C. in constant-temperature incubator introduced with mixture of 95% N2+[…]. Then the hypoxia treated cells are subjected to reoxygenation in normal condition for 5 h with the high glucose medium DMEM (containing 10% FBS) which has been previously saturated with mixture of 95% air+[…]. At the same time, the cells are incubated with compatible compositions. After treating the experimental groups of cells, the supernatant is collected; the content of LDH leak in supernatant of culture medium is measured according to the steps of LDH kit.

SHP-2 = biological target: T1, SHP-2 (Homo sapiens, UniProt Q06124); settings: previous studies; cited from earlier work
T1 sequence (Q06124 1-593): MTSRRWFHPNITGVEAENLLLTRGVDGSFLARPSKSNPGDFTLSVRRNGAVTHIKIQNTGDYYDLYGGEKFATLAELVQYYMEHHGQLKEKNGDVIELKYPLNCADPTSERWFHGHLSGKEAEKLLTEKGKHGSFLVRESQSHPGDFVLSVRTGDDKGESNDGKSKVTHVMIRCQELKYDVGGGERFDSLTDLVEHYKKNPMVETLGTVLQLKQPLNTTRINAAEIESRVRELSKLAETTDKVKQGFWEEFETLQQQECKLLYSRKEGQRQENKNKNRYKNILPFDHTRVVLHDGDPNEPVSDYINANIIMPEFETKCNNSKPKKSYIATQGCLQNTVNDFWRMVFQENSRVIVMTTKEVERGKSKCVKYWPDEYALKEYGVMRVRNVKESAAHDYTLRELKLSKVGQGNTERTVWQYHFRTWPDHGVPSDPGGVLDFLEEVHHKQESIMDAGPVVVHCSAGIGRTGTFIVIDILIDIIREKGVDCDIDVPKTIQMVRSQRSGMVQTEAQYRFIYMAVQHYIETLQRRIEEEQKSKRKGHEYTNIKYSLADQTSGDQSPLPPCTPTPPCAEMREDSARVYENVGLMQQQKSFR

PTEN = PTEN (Homo sapiens, UniProt P60484); settings: previous studies; cited from earlier work
PTEN, sequence (P60484 whole entry, species assumed): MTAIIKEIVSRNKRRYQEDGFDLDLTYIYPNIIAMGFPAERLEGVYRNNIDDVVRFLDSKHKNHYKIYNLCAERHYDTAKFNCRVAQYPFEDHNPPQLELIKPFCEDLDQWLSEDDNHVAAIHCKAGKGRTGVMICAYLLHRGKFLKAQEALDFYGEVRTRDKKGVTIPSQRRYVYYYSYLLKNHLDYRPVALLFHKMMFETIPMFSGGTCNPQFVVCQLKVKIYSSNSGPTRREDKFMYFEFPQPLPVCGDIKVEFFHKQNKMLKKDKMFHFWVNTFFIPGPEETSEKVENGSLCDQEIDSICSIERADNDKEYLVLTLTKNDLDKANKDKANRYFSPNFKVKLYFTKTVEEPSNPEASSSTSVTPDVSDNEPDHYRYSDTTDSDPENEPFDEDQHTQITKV

| SMILES | function of myocardial contraction [1] | mitochondrial membrane potential [1] | ADP [2] [µg/mL] | AMP [2] [µg/mL] | ATP [2] [µg/mL] | pH of supernatant [3] | protection rate of cell activity (%) [4] [%] | protection rate of cell activity (%) [5] [%] | Leak rate (%) of LDH [6] [%] | activity of SHP-2 (SHP-2) | heart rate [1] | mitochondrial Ca2+ [1] | activity of PTEN (PTEN) | level of cytoplasmic Ca2+ [1] | oxygen free radical damage [1] |
| --- | --- | --- | --- | --- | --- | --- | --- | --- | --- | --- | --- | --- | --- | --- | --- |
| O=c1cc(-c2ccc(O)c(O)c2)oc2cc(O)cc(O)c12 [Luteilon, luteolin] | improve | increase | 15.38 | 7.59 | 102.88 | 7.11 | 81.93 ± 7.18 | 68.08 | 122.37 | – | – | – | – | – | – |
| O=c1c(O)c(-c2ccc(O)cc2)oc2cc(O)cc(O)c12 [Kaempferol, kaempferol] | – | – | 17.15 | 7.15 | 84.72 | 7.10 | 76.97 ± 6.67 | 69.22 | 111.25 | inhibit | maintain | reduce | inhibit | – | – |
| O=c1cc(-c2ccc(O)c(O)c2)oc2cc(O[C@@H]3O[C@H](CO)[C@@H](O)[C@H](O)[C@H]3O)cc(O)c12 [Luteolin-7-0-glucoside, luteolin-7-O-glucoside] | – | – | 17.12 | 8.97 | 69.45 | 7.08 | 78.57 ± 4.54 | 71.17 | 115.18 | – | – | – | – | reduce | prevent |
